# Laboratory results reported in paper PMC4948780, “PARP Inhibitors in Clinical Use Induce Genomic Instability in Normal Human Cells” (PLoS ONE, 2016).
# Tests used:
# [1] = tested on: human cells; assay: Olaparib cytotoxicity on continuous exposure, summary over cell types; type: cell-based; conditions: typical value over cell types
# Description: (§1) Human mammary epithelial cell lines used included non-tumorigenic diploid MCF-10A, HMEC-hTERT and tumorigenic MDA-MB-468 (basal) and MCF-7 (luminal). […] Blood samples were obtained from normal donor participants. The participants provided written informed consent to IRB protocol #95–054 approved by the Institutional Review Board at MSKCC. The original signed consent is then sent to the research participant’s medical record and a copy of the consent is given to the participant. The EBV-transformed B-lymphocyte cell line (EBV-BL) was generated by transformation of peripheral blood mononuclear cells (PBMC) with the B95.8 strain of EBV, as previously described. Primary T cells were generated from PBMC from two normal donors by non-specific activation with phytohemagglutinin and cultured in RPMI1640 and human serum AB for 4–14 days before use. E14 mES cell line was provided by M. Hooper, Brca1^-/- 236.44 mES cell line was provided by B. H. Koller, Brca2^lex1/lex2 mES cell line was provided by P. Hasty and Lexicon Genetics. E14 wild-type, Brca1^-/- 236.44, and Brca2^lex1/lex2 mES cell lines were cultured in standard ES media. Brca1^-/- 236.44 cells express a BRCA1 peptide deleted for sequences encoded by exon 11 [52], while Brca2^lex1/lex2 cells express a BRCA2 peptide deleted for the terminal exon 27 [53]. […] Viable cells were scored by trypan blue exclusion.
# [2] = tested on: MCF-10A; assay: Clonogenic survival assay; type: cell-based, human
# Protocol: Clonogenic survival was assessed by colony counting at 9 days. […] Viable cells were scored and enumerated by trypan blue exclusion at 7 days. Means with SD are shown (MCF-10A: n = 3, primary T cell 1: n = 2). […] Fold increases of SCE per chromosome compared with no treatment or 0.5 μM cisplatin are shown for each cell type. Approximately 50 metaphases were counted for each cell. Error bars depict the mean with SD. Asterisks designate statistical significance for unpaired t-test at P < 0.0001. C. […] One hundred metaphases were counted for each exposure. Fold increases of chromatid-type aberrations per chromosome compared with no treatment or 0.5 μM cisplatin are shown for each cell type. The y-axis is the number of total chromatid-type aberrations per chromosome for each metaphase counted. Error bars indicate mean with SEM. The P-values were calculated using unpaired t-test.
# Human mammary epithelial cell lines used included non-tumorigenic diploid MCF-10A, HMEC-hTERT and tumorigenic MDA-MB-468 (basal) and MCF-7 (luminal). […] Blood samples were obtained from normal donor participants. The participants provided written informed consent to IRB protocol #95–054 approved by the Institutional Review Board at MSKCC. The original signed consent is then sent to the research participant’s medical record and a copy of the consent is given to the participant. The EBV-transformed B-lymphocyte cell line (EBV-BL) was generated by transformation of peripheral blood mononuclear cells (PBMC) with the B95.8 strain of EBV, as previously described. Primary T cells were generated from PBMC from two normal donors by non-specific activation with phytohemagglutinin and cultured in RPMI1640 and human serum AB for 4–14 days before use. E14 mES cell line was provided by M. Hooper, Brca1^-/- 236.44 mES cell line was provided by B. H. Koller, Brca2^lex1/lex2 mES cell line was provided by P. Hasty and Lexicon Genetics. E14 wild-type, Brca1^-/- 236.44, and Brca2^lex1/lex2 mES cell lines were cultured in standard ES media. Brca1^-/- 236.44 cells express a BRCA1 peptide deleted for sequences encoded by exon 11 [52], while Brca2^lex1/lex2 cells express a BRCA2 peptide deleted for the terminal exon 27 [53]. Olaparib was synthesized in the MSKCC Organic chemistry core facility. Veliparib and BSI-201 were purchased from Chemie Tek. The compounds were dissolved in DMSO and PBS. For clonogenic survival assays, MCF-10A (1000 cells), HMEC-hTERT (1000 cells), MDA-MB-468 (1500 cells) and mouse ES cell (2000 cells) were seeded, vehicle control or inhibitors were added at the indicated concentration 24 hours after seeding and changed every three days for continuous treatment. At 7–14 days, colonies were fixed with methanol and stained with Giemsa. For EBV-BL (6 × 10^6) and primary T cells (3.6 × 10^6) were continuously exposed to the indicated concentration of drug for 10 days at 0.6 × 10^6 cells/ml. Viable cells were scored by trypan blue exclusion.
# [3] = tested on: primary T cell 2; assay: Survival, trypan blue exclusion test of cell viability; type: cell-based; conditions: Homo sapiens, read-out: IC50 of olaparib, continuous exposure
# Description: as §1
# [4] = tested on: MDA-MB-468; assay: Chromosomal aberrations on metaphase spreads (Giemsa); type: cell-based, human; conditions: 1 μM, 24 hrs
# Protocol: (§2) To prepare metaphase spreads, exponentially growing cells were treated with 0.1–0.3 μg/ml of colcemid for 1–6 hr. Cells were collected and incubated in hypotonic solution (0.56% KCl), fixed in methanol: acetic acid (3:1), spotted to slides and air-dried. To measure chromosomal aberrations, the slides were stained with 2% Giemsa/Sorensen’s buffer. To visualize SCEs, the doubling time for each cell type was determined. Cells were incubated with 10 μM BrdU for two cell cycles. After metaphase spreads were prepared, the slides were treated with 0.5 μg/ml Hoechst 33258. The slides were exposed to black light for 20–60 min, incubated at 60°C for 2 hr, and stained in 4–10% Giemsa/Sorensen’s buffer.
# [5] = tested on: MCF-7; assay: as above; type: cell-based, human; conditions: 1 μM, 24 hrs
# Protocol: as §2
# [6] = tested on: HMEC-hTERT; assay: as above; type: cell-based, human; conditions: 1 μM, 24 hrs
# Protocol: as §2
# [7] = tested on: primary T cell 1; assay: as above; type: cell-based, human; conditions: 1 μM, 24 hrs
# Protocol: as §2
# [8] = 100 metaphases, radial and telomere association counted as two
smiles,measurement,setting,value
O=C(c1cc(Cc2n[nH]c(=O)c3ccccc23)ccc1F)N1CCN(C(=O)C2CC2)CC1 [olaparib],IC50,[1],> 2000 nM
same,survival (mean ± SD),[2]; 1 μM,95.7 ± 1.9%
same,IC50,"[2]; Homo sapiens, continuous exposure, clonogenic survival assay, read-out: IC50 (cell survival)",4700 nM
same,IC50,[3],2700 nM
same,total chromatid-type aberrations / metaphase (mean ± SEM),[4],0.67 ± 0.13
same,chromatid-type radial chromosome,[4]; 100 metaphases,5
same,chromatid-type telomere association,[4]; 100 metaphases,3
same,chromosome-type dicentric,[4]; 100 metaphases,4
same,chromosome-type gap/break,[4]; 100 metaphases,5
same,total chromatid-type aberrations,[4]; [8],67
same,total chromatid-type aberrations / metaphase (mean ± SEM),[5],1.39 ± 0.14
same,chromatid-type radial chromosome,[5]; 100 metaphases,4
same,chromatid-type telomere association,[5]; 100 metaphases,1
same,chromosome-type dicentric,[5]; 100 metaphases,4
same,chromosome-type gap/break,[5]; 100 metaphases,8
same,total chromatid-type aberrations / metaphase (mean ± SEM),[6],0.30 ± 0.07
same,chromatid-type radial chromosome,[6]; 100 metaphases,0
same,chromatid-type telomere association,[6]; 100 metaphases,0
same,chromosome-type dicentric,[6]; 100 metaphases,0
same,chromosome-type gap/break,[6]; 100 metaphases,4
same,total chromatid-type aberrations,[6]; [8],30
same,total chromatid-type aberrations / metaphase (mean ± SEM),[7],0.44 ± 0.07
same,chromatid-type radial chromosome,[7]; 100 metaphases,2
same,chromatid-type telomere association,[7]; 100 metaphases,0
same,chromosome-type dicentric,[7]; 100 metaphases,3
same,chromosome-type gap/break,[7]; 100 metaphases,0
same,total chromatid-type aberrations,[7]; [8],44
